Measured values: patent publication US20250388604A1, “Compounds and Their Use as PDE4 Activators” (Mironid Limited, priority 2022, published 2025)

Legend:
[1] = system: m-IMCD3 cells expressing PDE4 long forms; assay: cAMP levels in PGE2-stimulated 3D m-IMCD3 cell culture media; type: cell-based; settings: Mus musculus, mIMCD3, compared to 100% for (DMSO + PGE2), read-out: cAMP level (% of PGE2-stimulated); for activity at 10 µM: 10 μM test compound; for activity at 3 µM: 3 μM test compound
Method: HEK 293 and MDCK cells (Public Health England, Cell Culture Collections) were maintained in Dulbecco's Modified Eagle's Medium (DMEM) supplemented with 10% (v/v) fetal bovine serum (FBS) (Seralab), 2 mM L-glutamine and 100 U/mL penicillin streptomycin cocktail (ThermoFisher); termed complete media. Clonal HEK 293 cell lines were maintained in complete media supplemented with 0.6 mg/ml G418 (Enzo Life Sciences). Mouse inner medullary collecting duct (m-IMCD3) cells [American Type Culture Collection (ATCC)] were maintained in media consisting of DMEM/Hams F-12 50/50 Mix (DMEM F12; Corning) supplemented with penicillin streptomycin cocktail (100 U/mL) and FBS (10% v/v) (DMEM F12-10% FBS).
Activation of intracellular PDE4 long forms leads to a reduction of both intracellular cAMP and externalised cAMP (Omar et al., PNAS 116: 13320-13329, 2019). This reduction may be measured in the cell culture media supernatant of 3D cystic cell cultures, such as in the m-IMCD3 cell cyst suppression assay described in Experiment 3.
Following the completion of the m-IMCD3 cell cyst suppression assay (Experiment 3), the cAMP level in the assay media from individual or pooled assay wells was measured using a cAMP ELISA kit (Enzo Life Sciences) or a LANCE Ultra cAMP kit (PerkinElmer) according to the manufacturer's instructions.

m-IMCD3 cells = assay: Inhibition of PGE2-stimulated in vitro cyst formation in m-IMCD3 cells; type: cell-based, mouse; settings: Mus musculus, mIMCD3, 144 h, mean cyst area, 100% for (DMSO + PGE2) and 0% for DMSO control, 6 days of culture; for activity at 10 µM: read-out: % Cyst area after incubation with 10 μM test compound; for activity at 3 µM: read-out: % Cyst area after incubation with 3 μM test compound
Method in brief: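 m-IMCD3 cells embedded in collagen I/Matrigel 3D culture; 18–24 h after plating, compound (0.1% DMSO final) plus PGE2 (100 nM final) added, replenished after 2 or 3 days. After 6 days, z-stack imaging gave mean cyst area, normalized to DMSO+PGE2 (100%) and DMSO (0%).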

Row | Structure (SMILES) | activity at 10 µM [1] [%] | activity at 10 µM (m-IMCD3 cells) [%] | activity at 3 µM [1] [%] | activity at 3 µM (m-IMCD3 cells) [%]
1 | O=C(CC1CCCC1)N1CCc2nc(N3C4CCC3CNC4)sc2C1 [Example 1, 1-(2-(3,8-diazabicyclo[3.2.1]octan-8-yl)-6,7-dihydrothiazolo[5,4-c]pyridin-5(4H)-yl)-2-cyclopentylethan-1-one] | 14 | -5 | – | –
2 | CC(C)(C)CC(=O)N1CCc2nc(N3C4CCC3CNC4)sc2C1 [Example 10, 1-(2-(3,8-diazabicyclo[3.2.1]octan-8-yl)-6,7-dihydrothiazolo[5,4-c]pyridin-5(4H)-yl)-3,3-dimethylbutan-1-one] | 38 | -3 | – | –
3 | O=C(CC1CCCC1)N1Cc2nc(N3C4CCC3CNC4)sc2C1 [Example 66, 1-(2-(3,8-diazabicyclo[3.2.1]octan-8-yl)-4,6-dihydro-5H-pyrrolo[3,4-d]thiazol-5-yl)-2-cyclopentylethan-1-one] | – | -5 | 36 | –
4 | O=C(NC1CCCC1)N1Cc2nc(N3C4CCC3CNC4)sc2C1 [Example 68, 2-(3,8-diazabicyclo[3.2.1]octan-8-yl)-N-cyclopentyl-4,6-dihydro-5H-pyrrolo[3,4-d]thiazole-5-carboxamide] | – | -4 | 19 | –
5 | O=C(CC1CCCC1)N1CCc2nc(C3CCNCC3)sc2C1 [Example 118, 2-cyclopentyl-1-(2-(piperidin-4-yl)-6,7-dihydrothiazolo[5,4-c]pyridin-5(4H)-yl)ethan-1-one] | – | 5 | 52 | –
6 | O=C(N1CCn2nc(N3C4CCC3CNC4)cc2C1)C(F)(F)c1ccccc1 [Example 126, 1-(2-(3,8-diazabicyclo[3.2.1]octan-8-yl)-6,7-dihydropyrazolo[1,5-a]pyrazin-5(4H)-yl)-2,2-difluoro-2-phenylethan-1-one] | – | -10 | 39 | –
7 | O=C(CC1CCCC1)N1CCn2nc(N3C4CCC3CNC4)cc2C1 [Example 127, 1-(2-(3,8-diazabicyclo[3.2.1]octan-8-yl)-6,7-dihydropyrazolo[1,5-a]pyrazin-5(4H)-yl)-2-cyclopentylethan-1-one] | – | 3 | 42 | –
8 | CC1(CC(=O)N2CCn3nc(N4C5CCC4CNC5)cc3C2)CCCC1 [Example 128, 1-(2-(3,8-diazabicyclo[3.2.1]octan-8-yl)-6,7-dihydropyrazolo[1,5-a]pyrazin-5(4H)-yl)-2-(1-methylcyclopentyl)ethan-1-one] | – | -2 | 50 | –
9 | O=C([C@H](O)C1CCCC1)N1CCc2nc(N3C4CCC3CNC4)sc2C1 [Example 171, (2R)-1-(2-(3,8-diazabicyclo[3.2.1]octan-8-yl)-6,7-dihydrothiazolo[5,4-c]pyridin-5(4H)-yl)-2-cyclopentyl-2-hydroxyethan-1-one] | – | – | 56 | 6
10 | O=C(C1COc2ccccc21)N1CCc2nc(N3C4CCC3CNC4)sc2C1 (stereo not shown) [Example 184, (2-(3,8-diazabicyclo[3.2.1]octan-8-yl)-6,7-dihydrothiazolo[5,4-c]pyridin-5(4H)-yl)(2,3-dihydrobenzofuran-3-yl)methanone] | – | – | 58 | 15
11 | O=C(c1ccc(C(F)(F)F)nc1)N1CCc2nc(N3C4CCC3CNC4)sc2C1 [Example 241, (2-(3,8-diazabicyclo[3.2.1]octan-8-yl)-6,7-dihydrothiazolo[5,4-c]pyridin-5(4H)-yl)(6-(trifluoromethyl)pyridin-3-yl)methanone] | – | – | 43 | 4
12 | O=C(OC1CCCC1)N1CCc2nc(N3C4CCC3CNC4)sc2C1 [Example 244, cyclopentyl 2-(3,8-diazabicyclo[3.2.1]octan-8-yl)-6,7-dihydrothiazolo[5,4-c]pyridine-5(4H)-carboxylate] | – | – | 40 | 6
13 | CC(C)CC(=O)N1Cc2sc(N3C4CCC3CNC4)nc2C(C)(C)C1 [Example 257, 1-(2-(3,8-diazabicyclo[3.2.1]octan-8-yl)-7,7-dimethyl-6,7-dihydrothiazolo[5,4-c]pyridin-5(4H)-yl)-3-methylbutan-1-one] | – | – | 36 | -3
14 | CC1(C)CN(C(=O)CC2CCC3(CC2)COC3)Cc2sc(N3C4CCC3CNC4)nc21 [Example 260, 1-(2-(3,8-diazabicyclo[3.2.1]octan-8-yl)-7,7-dimethyl-6,7-dihydrothiazolo[5,4-c]pyridin-5(4H)-yl)-2-(2-oxaspiro[3.5]nonan-7-yl)ethan-1-one] | – | – | 52 | 10
15 | CC(C)C(=O)N1Cc2sc(N3C4CCC3CNC4)nc2CC1(C)C [Example 268, 1-(2-(3,8-diazabicyclo[3.2.1]octan-8-yl)-6,6-dimethyl-6,7-dihydrothiazolo[5,4-c]pyridin-5(4H)-yl)-2-methylpropan-1-one] | – | – | 39 | 1
16 | O=C(CC1CCCC1)N1CCc2nc(N3C4CCCC3CNC4)sc2C1 [Example 273, 1-(2-(3,9-diazabicyclo[3.3.1]nonan-9-yl)-6,7-dihydrothiazolo[5,4-c]pyridin-5(4H)-yl)-2-cyclopentylethan-1-one] | – | – | 58 | -11
17 | O=C(CC1CCCC1)N1CCc2nc(N3CC4CCC(C3)N4)sc2C1 [Example 276, 1-(2-(3,8-diazabicyclo[3.2.1]octan-3-yl)-6,7-dihydrothiazolo[5,4-c]pyridin-5(4H)-yl)-2-cyclopentylethan-1-one] | – | – | 41 | 13
18 | O=C(CC1CCCC1)N1CCc2nc(N3C[C@@H]4C[C@H]3CN4)sc2C1 [Example 277, 1-(2-((1S,4S)-2,5-diazabicyclo[2.2.1]heptan-2-yl)-6,7-dihydrothiazolo[5,4-c]pyridin-5(4H)-yl)-2-cyclopentylethan-1-one] | – | – | 42 | 6
19 | O=C(CC1CCCC1)N1CCc2nc(N3C[C@H]4C[C@@H]3CN4)sc2C1 [Example 279, 1-(2-((1R,4R)-2,5-diazabicyclo[2.2.1]heptan-2-yl)-6,7-dihydrothiazolo[5,4-c]pyridin-5(4H)-yl)-2-cyclopentylethan-1-one] | – | – | 27 | 19
20 | O=C(CC1CCCC1)N1CCc2nc(N3CC4CCCC(C3)N4)sc2C1 [Example 280, 1-(2-(3,9-diazabicyclo[3.3.1]nonan-3-yl)-6,7-dihydrothiazolo[5,4-c]pyridin-5(4H)-yl)-2-cyclopentylethan-1-one] | – | – | 33 | -10
21 | O=C(CC1CCCC1)N1CCc2sc(N3C4CCC3CNC4)nc2C1 [Example 281, 1-(2-(3,8-diazabicyclo[3.2.1]octan-8-yl)-6,7-dihydrothiazolo[4,5-c]pyridin-5(4H)-yl)-2-cyclopentylethan-1-one] | – | – | 51 | -9
22 | CC(C)(C)CC(=O)N1CCc2sc(N3C4CCC3CNC4)nc2C1 [Example 282, 1-(2-(3,8-diazabicyclo[3.2.1]octan-8-yl)-6,7-dihydrothiazolo[4,5-c]pyridin-5(4H)-yl)-3,3-dimethylbutan-1-one] | – | – | 35 | 3
23 | O=S(=O)(Cc1ccc(F)cc1)N1CCc2nc(N3C4CCC3CNC4)sc2C1 [Example 285, 2-(3,8-diazabicyclo[3.2.1]octan-8-yl)-5-((4-fluorobenzyl)sulfonyl)-4,5,6,7-tetrahydrothiazolo[5,4-c]pyridine] | – | – | 35 | -3
